pIC50: −log10 of the molar value. Read-outs that look alike come from different tables or passages of the source.
What was measured:
[1] = tested on: P. falciparum female gametocytes; test: P. falciparum Dual Gamete Formation Assay (PfDGFA), female readout (Pfs25-positive female gametes); assay type: cell-based, Plasmodium falciparum NF54; conditions: for Average inhibition female (%) / % inhibition female (individual replicates) R1 / % inhibition female (individual replicates) R3 / % inhibition female (individual replicates) R4 / inhibition at 2 µM: 24h preincubation with gametocytes; for Selectivity ratio F: HepG2 Tox50 versus female IC50; for pIC50: PfDGFA, 24 h incubation with gametocytes before induction, female gamete readout, read-out: Female IC50; for HitlevelF: number of replicates with >50% inhibition in the female readout
Procedure, shortened: (§1)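 Male and female gamete formation were quantified by microscopy image analysis following 24 h incubation of mature NF54 gametocytes with compound and activation at 28°C with xanthurenic acid.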

[2] = tested on: P. falciparum male gametocytes; test: P. falciparum Dual Gamete Formation Assay (PfDGFA), male readout (exflagellation); assay type: cell-based, Plasmodium falciparum NF54; conditions: for Average inhibition male (%) / % inhibition male (individual replicates) R1 / % inhibition male (individual replicates) R3 / % inhibition male (individual replicates) R4 / inhibition at 2 µM: 24h preincubation with gametocytes; for Selectivity Ratio M: HepG2 Tox50 versus male IC50; for pIC50: PfDGFA, 24 h incubation with gametocytes before induction, exflagellation readout, read-out: Male IC50; for HitlevelM: number of replicates with >50% inhibition in the male readout
Procedure, shortened: as §1

HepG2 cells = test: HepG2 cytotoxicity counter-screen; conditions: cytotoxic activity against HepG2 cells
[3] = PfDGFA at 2µM, average of replicates

Structure (SMILES)	Average inhibition female (%) ([1]; 2µM, average of replicates)	% inhibition female (individual replicates) R1 ([1]; 2µM, replicate R1)	% inhibition female (individual replicates) R3 ([1]; 2µM, replicate R3)	% inhibition female (individual replicates) R4 ([1]; 2µM, replicate R4)	Selectivity ratio F [1]	pIC50 [1]	Average inhibition male (%) ([2]; 2µM, average of replicates)	% inhibition male (individual replicates) R1 ([2]; 2µM, replicate R1)	% inhibition male (individual replicates) R3 ([2]; 2µM, replicate R3)	% inhibition male (individual replicates) R4 ([2]; 2µM, replicate R4)	Selectivity Ratio M [2]	pIC50 [2]	Tox50 (HepG2 cells)	Average inhibition female (%) [1, 3]	% inhibition female (individual replicates) R1 ([1]; PfDGFA at 2µM, replicate R1)	% inhibition female (individual replicates) R3 ([1]; PfDGFA at 2µM, replicate R3)	% inhibition female (individual replicates) R4 ([1]; PfDGFA at 2µM, replicate R4)	HitlevelF ([1]; 2µM)	Average inhibition male (%) [2, 3]	% inhibition male (individual replicates) R1 ([2]; PfDGFA at 2µM, replicate R1)	other results
COc1ccc2ccc(OC)c(CNCCCCCCNCc3c(OC)ccc4ccc(OC)cc34)c2c1.CS(=O)(=O)O [TCMDC-137796]	38.4%	29.7%	9.8%	40.9%	1.12	5.44	93.5%	89.3%	82.0%	102.2%	2.84	5.84	4.07 µM	–	–	–	–	–	–	–	–
CC(Cc1ccc(OCCCCOc2ccccc2)cc1)NCCC1CCCN1C (centres unmarked) [TCMDC-140017]	62.2%	37.3%	46.8%	81.6%	1.19	5.86	99.4%	96.0%	99.2%	102.2%	2.45	6.18	1.62 µM	–	–	–	–	–	–	–	–
O=C(c1ccc([N+](=O)[O-])o1)N1CCC(Cc2ccc(C(F)(F)F)cc2)CC1 [TCMDC-124805]	–	–	–	–	64.48	–	–	–	–	–	70.69	–	28.45 µM	–	–	–	–	–	–	–	inhibition at 2 µM ([1]; Plasmodium falciparum, 2µM, average of replicates, read-out: Average inhibition female (%)): 55.8%; inhibition at 2 µM ([1]; Plasmodium falciparum, 2µM, replicate R1, read-out: % inhibition female (individual replicates) R1): 35.5%; inhibition at 2 µM ([1]; Plasmodium falciparum, 2µM, replicate R2, read-out: % inhibition female (individual replicates) R2): 62.7%; inhibition at 2 µM ([1]; Plasmodium falciparum, 2µM, replicate R3, read-out: % inhibition female (individual replicates) R3): 38.2%; inhibition at 2 µM ([1]; Plasmodium falciparum, 2µM, replicate R4, read-out: % inhibition female (individual replicates) R4): 86.7%; pIC50 ([1]; Plasmodium falciparum): 6.36; inhibition at 2 µM ([2]; Plasmodium falciparum, 2µM, average of replicates, read-out: Average inhibition male (%)): 101%; inhibition at 2 µM ([2]; Plasmodium falciparum, 2µM, replicate R1, read-out: % inhibition male (individual replicates) R1): 98.9%; inhibition at 2 µM ([2]; Plasmodium falciparum, 2µM, replicate R2, read-out: % inhibition male (individual replicates) R2): 100%; inhibition at 2 µM ([2]; Plasmodium falciparum, 2µM, replicate R3, read-out: % inhibition male (individual replicates) R3): 102%; inhibition at 2 µM ([2]; Plasmodium falciparum, 2µM, replicate R4, read-out: % inhibition male (individual replicates) R4): 102%; pIC50 ([2]; Plasmodium falciparum): 6.40
CNCCNCc1ccc(-c2ccc(-c3nc4cc(C(F)(F)F)ccc4[nH]3)s2)cc1.O=C(O)C(F)(F)F [TCMDC-132838]	23.9%	24.8%	17.6%	33.8%	1.31	–	96.4%	96.0%	93.3%	98.9%	9.9	5.88	13.1 µM	–	–	–	–	–	–	–	–
COc1ccc(CNC2CCN(C)CC2)cc1-c1ccc(S(=O)(=O)NCc2ccccc2)s1.O=C(O)C(F)(F)F [TCMDC-132253]	–	–	–	–	1.37	5.40	–	–	–	–	3.9	5.86	5.43 µM	28.1%	31.4%	13.9%	24.4%	0	82.6%	86.4%	% inhibition male (individual replicates) R3 ([2]; PfDGFA at 2µM, replicate R3): 70.7%; % inhibition male (individual replicates) R4 ([2]; PfDGFA at 2µM, replicate R4): 89.6%; HitlevelM ([2]; 2µM): 4
CN1CCN(CCCNCc2ccc(Nc3nccc(Nc4ccc(Oc5ccccc5)cc4)n3)cc2)CC1 [TCMDC-138621]	–	–	–	–	1.14	5.16	–	–	–	–	4.45	5.75	7.88 µM	16.4%	12.8%	8.2%	31.4%	0	76.4%	65.3%	% inhibition male (individual replicates) R3 ([2]; PfDGFA at 2µM, replicate R3): 52.8%; % inhibition male (individual replicates) R4 ([2]; PfDGFA at 2µM, replicate R4): 96.9%; HitlevelM ([2]; 2µM): 4

Reference: publication PMC10584170, “Machine learning-based phenotypic imaging to characterise the targetable biology of Plasmodium falciparum male gametocytes for the development of transmission-blocking antimalarials” (PLOS Pathogens, 2023)
